SMILES strings stand for the structures.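 Compound exposure: 48 hours, 5 concentrations, 96-well plates. TGI: concentration producing complete growth inhibition.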 Where only a bound is given, the exact number is not on record here.

Drawing on PubChem BioAssay (NCI), this text covers TGI for ten compounds.

Some test systems named below: OVCAR-5 ovarian; UACC-257 melanoma; U251 CNS; HOP-92 NSCLC; UACC-62 melanoma; SNB-19 CNS; SNB-75 CNS; EKVX NSCLC; SF-268 CNS; IGROV1 ovarian; RPMI-8226 leukemia; SK-MEL-5 melanoma; A498 renal; LOX IMVI melanoma; NCI-H226 lung; OVCAR-3 ovarian.
Common to all, as to test: NCI anticancer screen, dose series, 48 h

On to `COC1=CC(=O)C2C(C1=O)C(c1ccc(OC)c(OC)c1)[C@H]2C` (stereo not given in full), for which the TGI is greater than 100 µM in the experiment with OVCAR-5 ovarian; 41.1 µM in the experiment with UACC-257 melanoma; greater than 100 µM with U251 CNS; 36.6 µM in the experiment on HOP-92 NSCLC; greater than 100 µM in the experiment with UACC-62 melanoma; greater than 100 µM with SNB-19 CNS. Moreover, the TGI is greater than 100 µM with SNB-75 CNS; greater than 100 µM in the experiment on EKVX NSCLC; greater than 100 µM with SF-268 CNS; greater than 100 µM in the experiment on IGROV1 ovarian; 38.4 µM with RPMI-8226 leukemia; 61.4 µM in the experiment with SK-MEL-5 melanoma. Also, the TGI is greater than 100 µM with A498 renal, 40.4 µM in the experiment on LOX IMVI melanoma, greater than 100 µM with NCI-H226 lung and 40.1 µM in the experiment with OVCAR-3 ovarian.
Turning to `CC/C(SC)=[N+](\C)[O-]`, the TGI in the experiment on OVCAR-5 ovarian, in the experiment with UACC-257 melanoma, in the experiment on U251 CNS, in the experiment with HOP-92 NSCLC, in the experiment with UACC-62 melanoma and with SNB-19 CNS was greater than 100 µM in each case. Further, the TGI in the experiment on SNB-75 CNS, in the experiment on EKVX NSCLC, in the experiment on SF-268 CNS, with IGROV1 ovarian, in the experiment on RPMI-8226 leukemia and in the experiment with SK-MEL-5 melanoma was greater than 100 µM throughout. Further, the TGI is greater than 100 µM in the experiment with A498 renal, greater than 55.8 µM in the experiment with LOX IMVI melanoma, greater than 100 µM with NCI-H226 lung and greater than 100 µM in the experiment with OVCAR-3 ovarian.
For `Cn1c(=O)n2n(c1=O)[C@@H](c1ccccc1)[C@H]2c1ccccc1`, the TGI with OVCAR-5 ovarian, in the experiment on UACC-257 melanoma, in the experiment on U251 CNS, in the experiment with HOP-92 NSCLC, with UACC-62 melanoma and with SNB-19 CNS was greater than 100 µM each time. Also, the TGI in the experiment with SNB-75 CNS, with EKVX NSCLC, in the experiment on IGROV1 ovarian, in the experiment with SK-MEL-5 melanoma, in the experiment on A498 renal and with LOX IMVI melanoma was greater than 100 µM throughout. Besides, the TGI in the experiment with NCI-H226 lung and with OVCAR-3 ovarian was greater than 100 µM in each case.
Consider `CCN(CC)CCCCC1CCN(CC(=O)N2c3cc(Cl)ccc3NC(=O)CC2C)CC1` (stereo not given), for which the TGI in the experiment on OVCAR-5 ovarian, in the experiment with UACC-257 melanoma, with U251 CNS, with HOP-92 NSCLC, in the experiment on UACC-62 melanoma and in the experiment with SNB-19 CNS was greater than 100 µM throughout. Besides, the TGI in the experiment with SF-268 CNS, in the experiment with IGROV1 ovarian, with RPMI-8226 leukemia, in the experiment with SK-MEL-5 melanoma, in the experiment with A498 renal and with LOX IMVI melanoma was greater than 100 µM in each case. In addition, the TGI with NCI-H226 lung and in the experiment with OVCAR-3 ovarian was greater than 100 µM throughout.
Regarding `CN1N=C2c3ccccc3CC[C@H]2C1c1cccc(O)c1` (stereo not given in full), the TGI with OVCAR-5 ovarian, in the experiment with UACC-257 melanoma, in the experiment on U251 CNS, in the experiment on HOP-92 NSCLC, in the experiment with UACC-62 melanoma and in the experiment with SNB-19 CNS was greater than 100 µM in each case. Moreover, the TGI in the experiment with EKVX NSCLC, in the experiment with SF-268 CNS, in the experiment with IGROV1 ovarian, with RPMI-8226 leukemia, with A498 renal and in the experiment on LOX IMVI melanoma was greater than 100 µM each time. Also, the TGI in the experiment on NCI-H226 lung and in the experiment with OVCAR-3 ovarian was greater than 100 µM each time.
Take `O=C1NC2C(CCO)CC=C[C@H]2c2cc3c(cc21)OCO3` (stereo not given in full): the TGI in the experiment on UACC-257 melanoma, in the experiment on U251 CNS, in the experiment with UACC-62 melanoma, in the experiment with SNB-19 CNS, with SNB-75 CNS and with EKVX NSCLC was greater than 100 µM in each case. In addition, the TGI in the experiment on SF-268 CNS, in the experiment with IGROV1 ovarian, in the experiment with RPMI-8226 leukemia, in the experiment on LOX IMVI melanoma, with NCI-H226 lung and in the experiment on OVCAR-3 ovarian was greater than 100 µM each time.
`C/C(=N/NC(N)=S)C(CN(C)C)C(C1=C(O)c2ccccc2OC1)c1ccccc1` (stereo not given): the TGI with OVCAR-5 ovarian, in the experiment with UACC-257 melanoma, in the experiment with U251 CNS, in the experiment with UACC-62 melanoma, in the experiment with SNB-19 CNS and in the experiment on SNB-75 CNS was greater than 100 µM each time. Moreover, the TGI in the experiment on EKVX NSCLC, in the experiment with SF-268 CNS, with IGROV1 ovarian, in the experiment on RPMI-8226 leukemia, with SK-MEL-5 melanoma and in the experiment with A498 renal was greater than 100 µM each time. Further, the TGI in the experiment on LOX IMVI melanoma, in the experiment on NCI-H226 lung and with OVCAR-3 ovarian was greater than 100 µM each time.
For the compound `Nc1ncnc2c1ncn2C1CC(OC2CCCCO2)C(CO)O1` (stereo not given), the TGI in the experiment on OVCAR-5 ovarian, in the experiment on UACC-257 melanoma, with U251 CNS, with HOP-92 NSCLC, with SNB-19 CNS and in the experiment with EKVX NSCLC was greater than 100 µM in each case. Further, the TGI in the experiment with SF-268 CNS, with IGROV1 ovarian, in the experiment with RPMI-8226 leukemia, with A498 renal, in the experiment on LOX IMVI melanoma and in the experiment with NCI-H226 lung was greater than 100 µM in each case. In addition, in the experiment on OVCAR-3 ovarian, the TGI is greater than 100 µM.
Regarding `COc1ccc2c(c1)OC(c1ccccc1O)CC2=O` (stereo not given), the TGI in the experiment on OVCAR-5 ovarian, in the experiment with UACC-257 melanoma, with U251 CNS, in the experiment on SNB-19 CNS, in the experiment on SNB-75 CNS and in the experiment on EKVX NSCLC was greater than 100 µM throughout. Moreover, the TGI is greater than 100 µM in the experiment on SF-268 CNS; greater than 100 µM in the experiment with RPMI-8226 leukemia; greater than 100 µM in the experiment on SK-MEL-5 melanoma; greater than 100 µM with A498 renal; 96.8 µM in the experiment with OVCAR-3 ovarian.
`COC(=O)N/N=C(/Cc1occc(=O)c1O)C(=O)Nc1ccc([N+](=O)[O-])cc1[N+](=O)[O-]`: the TGI with OVCAR-5 ovarian, in the experiment on UACC-257 melanoma, in the experiment with U251 CNS, in the experiment with HOP-92 NSCLC, in the experiment with UACC-62 melanoma and in the experiment with SNB-19 CNS was greater than 100 µM in each case. Further, the TGI in the experiment with SNB-75 CNS, with EKVX NSCLC, with SF-268 CNS, with IGROV1 ovarian, in the experiment on RPMI-8226 leukemia and in the experiment on SK-MEL-5 melanoma was greater than 100 µM in each case. In addition, the TGI in the experiment with A498 renal, in the experiment on LOX IMVI melanoma and with NCI-H226 lung was greater than 100 µM each time.
